Results taken from BindingDB's records for doi:10.1021/jm00079a024 (Roche Products, 1992).
Each block holds one compound with its values, some of them ahead of it.

Tests used:
[1] = target: Protein kinase C beta type (Rattus norvegicus, UniProt P68403); test: PKC assay
Procedure: The activity of PKC, activated by phosphatidylerine and Ca2+, is measured by its ability to transfer phosphate from [gamma-32P]ATP to lysine-rich histone.

[2] = target: cAMP-dependent protein kinase catalytic subunit alpha (Bos taurus, UniProt P00517); test: PKA assay
Procedure: The activity of PKA, activated by cAMP, is measured by its ability to transfer phosphate from [gamma-32P]ATP to histone.

Protein kinase C beta type, sequence (P68403 whole entry): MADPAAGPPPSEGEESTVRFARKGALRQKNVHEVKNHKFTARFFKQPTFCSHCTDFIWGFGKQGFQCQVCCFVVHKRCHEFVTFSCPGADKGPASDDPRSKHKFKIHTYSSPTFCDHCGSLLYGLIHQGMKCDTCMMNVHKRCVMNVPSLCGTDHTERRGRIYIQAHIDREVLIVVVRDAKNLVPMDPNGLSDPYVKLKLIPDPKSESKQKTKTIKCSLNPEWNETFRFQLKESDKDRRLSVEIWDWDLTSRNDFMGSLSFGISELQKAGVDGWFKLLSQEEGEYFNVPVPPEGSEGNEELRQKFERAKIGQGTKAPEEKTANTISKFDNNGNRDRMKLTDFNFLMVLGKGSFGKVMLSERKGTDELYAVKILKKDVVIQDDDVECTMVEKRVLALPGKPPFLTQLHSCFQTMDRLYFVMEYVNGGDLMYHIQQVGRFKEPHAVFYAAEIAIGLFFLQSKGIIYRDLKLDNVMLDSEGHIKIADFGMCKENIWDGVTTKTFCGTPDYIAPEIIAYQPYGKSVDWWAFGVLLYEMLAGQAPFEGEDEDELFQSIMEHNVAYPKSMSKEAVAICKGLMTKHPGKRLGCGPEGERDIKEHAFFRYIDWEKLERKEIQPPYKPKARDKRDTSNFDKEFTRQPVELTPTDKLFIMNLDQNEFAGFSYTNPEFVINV

IC50 ([1]; pH 7.5, 30 °C): > 100 µM
Structure (SMILES): CN1C(=O)C(c2c[nH]c3ccccc23)=C(c2c[nH]c3ccccc23)C1=O

IC50 [1]: > 50 µM
Structure (SMILES): Cn1cc(C2=C(c3cn(C)c4ccc(C(=O)O)cc34)C(=O)NC2=O)c2ccccc21 [1-methyl-3-[4-(1-methyl-1H-indol-3-yl)-2,5-dioxo-2,5-dihydro-1H-pyrrol-3-yl]-1H-indole-5-carboxylic acid]

IC50 ([1]; pH 7.5, 30 °C): > 100 µM
Structure (SMILES): O=C1OC(=O)C(c2c[nH]c3ccccc23)=C1c1c[nH]c2ccccc12 [3,4-bis(1H-indol-3-yl)-2,5-dihydrofuran-2,5-dione]

IC50 [2]: > 100 µM
Structure (SMILES): Cn1cc(C2=C(c3csc4ccccc34)C(=O)NC2=O)c2ccccc21 [3-(1-benzothiophen-3-yl)-4-(1-methyl-1H-indol-3-yl)-2,5-dihydro-1H-pyrrole-2,5-dione]

IC50 ([2]; pH 8.5, 37 °C): > 100 µM
Structure (SMILES): Cn1cc(C2=C(c3cn(Cc4ccccc4)c4ccccc34)C(=O)NC2=O)c2ccccc21 [3-(1-benzyl-1H-indol-3-yl)-4-(1-methyl-1H-indol-3-yl)-2,5-dihydro-1H-pyrrole-2,5-dione]

IC50 ([1]; pH 7.5, 30 °C): > 100 µM
Structure (SMILES): Cn1cc(C2=C(c3cc4ccccc4n3C)C(=O)NC2=O)c2ccccc21 [3-(1-methyl-1H-indol-2-yl)-4-(1-methyl-1H-indol-3-yl)-2,5-dihydro-1H-pyrrole-2,5-dione]

IC50 [2]: > 100 µM
Structure (SMILES): Cn1cc(C2=C(c3cn(C)c4cccc([N+](=O)[O-])c34)C(=O)NC2=O)c2ccccc21 [3-(1-methyl-1H-indol-3-yl)-4-(1-methyl-4-nitro-1H-indol-3-yl)-2,5-dihydro-1H-pyrrole-2,5-dione]

IC50 [2]: > 100 µM
Structure (SMILES): Cc1cccc(C2=C(c3cn(C)c4ccccc34)C(=O)NC2=O)c1 [3-(1-methyl-1H-indol-3-yl)-4-(3-methylphenyl)-2,5-dihydro-1H-pyrrole-2,5-dione]

IC50 [1]: > 100 µM
Structure (SMILES): Cn1cc(C2=C(c3cccc(Oc4ccccc4)c3)C(=O)NC2=O)c2ccccc21 [3-(1-methyl-1H-indol-3-yl)-4-(3-phenoxyphenyl)-2,5-dihydro-1H-pyrrole-2,5-dione]

IC50 [1]: > 50 µM
Structure (SMILES): CSc1ccc(C2=C(c3cn(C)c4ccccc34)C(=O)NC2=O)cc1 [3-(1-methyl-1H-indol-3-yl)-4-[4-(methylsulfanyl)phenyl]-2,5-dihydro-1H-pyrrole-2,5-dione]

IC50 [2]: > 100 µM
Structure (SMILES): Cn1cc(C2=C(c3ccccc3)C(=O)NC2=O)c2ccccc21 [3-(1-methyl-1H-indol-3-yl)-4-phenyl-2,5-dihydro-1H-pyrrole-2,5-dione]

IC50 [2]: > 100 µM
Structure (SMILES): Cn1cc(C2=C(c3cc(Cl)cc(Cl)c3)C(=O)NC2=O)c2ccccc21 [3-(3,5-dichlorophenyl)-4-(1-methyl-1H-indol-3-yl)-2,5-dihydro-1H-pyrrole-2,5-dione]

IC50 [2]: > 100 µM
Structure (SMILES): Cn1cc(C2=C(c3cccc(N)c3)C(=O)NC2=O)c2ccccc21 [3-(3-aminophenyl)-4-(1-methyl-1H-indol-3-yl)-2,5-dihydro-1H-pyrrole-2,5-dione]

IC50 [2]: > 100 µM
Structure (SMILES): Cn1cc(C2=C(c3cccc(Cl)c3)C(=O)NC2=O)c2ccccc21 [3-(3-chlorophenyl)-4-(1-methyl-1H-indol-3-yl)-2,5-dihydro-1H-pyrrole-2,5-dione]

IC50 [1]: > 100 µM
Structure (SMILES): Cn1cc(C2=C(c3ccc(Cl)cc3)C(=O)NC2=O)c2ccccc21 [3-(4-chlorophenyl)-4-(1-methyl-1H-indol-3-yl)-2,5-dihydro-1H-pyrrole-2,5-dione]

IC50 [1]: > 100 µM
Structure (SMILES): Cn1cc(C2=C(c3ccc(S(C)(=O)=O)cc3)C(=O)NC2=O)c2ccccc21 [3-(4-methanesulfonylphenyl)-4-(1-methyl-1H-indol-3-yl)-2,5-dihydro-1H-pyrrole-2,5-dione]

IC50 ([1]; pH 7.5, 30 °C): > 100 µM
Structure (SMILES): O=C1NC(=O)[C@@H](c2c[nH]c3ccccc23)[C@@H]1c1c[nH]c2ccccc12 [(3R,4R)-3,4-bis(1H-indol-3-yl)pyrrolidine-2,5-dione]

IC50 ([1]; pH 7.5, 30 °C): > 100 µM
Structure (SMILES): O=C1NC(=O)[C@@H](c2c[nH]c3ccccc23)[C@H]1c1c[nH]c2ccccc12 [(3R,4S)-3,4-bis(1H-indol-3-yl)pyrrolidine-2,5-dione]
